Laboratory results published in patent publication US20180000085A1, “USE OF PICOLINAMIDE COMPOUNDS WITH FUNGICIDAL ACTIVITY” (DOW AGROSCIENCES LLC, priority 2014, published 2018).

Assays:
[1] = test system: Zymoseptoria tritici; test: Leaf blotch of wheat (SEPTTR) disease control on wheat seedlings; format: in vivo; design: key to SEPTTR 1DP, HV activity at 100 ppm (% control rating) / SEPTTR 3DC, HV activity at 100 ppm (% control rating) / SEPTTR disease control, 1DP / SEPTTR disease control, 3DC / SEPTTR 1DP disease control rating, HV activity / SEPTTR 3DC disease control rating, HV activity / SEPTTR 3DC, LV activity at 125.1 g/H (% Control rating) / SEPTTR 1DP, LV activity at 125.1 g/H (% Control rating) / SEPTTR 1DP disease control rating, LV activity at 125.1 g/H / SEPTTR 3DC disease control rating, LV activity at 125.1 g/H / SEPTTR 3DC disease control rating, HV activity at 100 ppm / SEPTTR 1DP disease control rating, HV activity at 100 ppm / HV activity at 100 ppm SEPTTR 3DC (disease control rating) / HV activity at 100 ppm SEPTTR 1DP (disease control rating) / LV activity at 125.1 g/H SEPTTR 1DP (disease control rating) / LV activity at 125.1 g/H SEPTTR 3DC (disease control rating): A: > 80; B: ≤ 80; C: Not Tested; D: No Activity Observed in the Reported Assay; conditions: high volume application, 100 ppm; for SEPTTR 1DP disease control rating, HV activity at 100 ppm: 1 day protectant; for SEPTTR 3DC disease control rating, HV activity at 100 ppm: 3 day curative
[2] = test system: Puccinia triticina; test: Wheat brown rust (PUCCRT) disease control on wheat seedlings; format: in vivo; conditions: high volume application, 100 ppm; for PUCCRT 1DP disease control rating, HV activity at 100 ppm: 1 day protectant; for PUCCRT 3DC disease control rating, HV activity at 100 ppm: 3 day curative

SMILES | SEPTTR 1DP disease control rating, HV activity at 100 ppm [1] | SEPTTR 3DC disease control rating, HV activity at 100 ppm [1] | PUCCRT 1DP disease control rating, HV activity at 100 ppm [2] | PUCCRT 3DC disease control rating, HV activity at 100 ppm [2]
COc1cc(O[C@H](C2CC2)[C@H](C)OC(=O)[C@H](C)NC(=O)c2nccc(OC)c2O)ccc1Cl [Cmpd 1000] | B (≤ 80) | B (≤ 80) | A (> 80) | A (> 80)
COc1cc(O[C@@H]([C@H](C)OC(=O)[C@H](C)NC(=O)c2nccc(OC)c2O)C(C)(C)C)ccc1Cl [Cmpd 1001] | B (≤ 80) | D | A (> 80) | A (> 80)
COc1ccnc(C(=O)N[C@@H](C)C(=O)O[C@@H](C)[C@H](OCC2CC2)C2CC2)c1O [Cmpd 1002] | B (≤ 80) | B (≤ 80) | A (> 80) | A (> 80)
CCC[C@@H](OCC1CC1)[C@H](C)OC(=O)[C@H](C)NC(=O)c1nccc(OC)c1O [Cmpd 1003] | A (> 80) | B (≤ 80) | A (> 80) | A (> 80)
COc1ccnc(C(=O)N[C@@H](C)C(=O)O[C@@H](C)[C@H](OCC2CC2)C(C)(C)C)c1O [Cmpd 1004] | B (≤ 80) | B (≤ 80) | A (> 80) | A (> 80)
COc1ccnc(C(=O)N[C@@H](C)C(=O)O[C@@H](C)[C@H](Oc2ccc(C)cc2Cl)C2CC2)c1O [Cmpd 1005] | B (≤ 80) | B (≤ 80) | A (> 80) | A (> 80)
COc1ccnc(C(=O)N[C@@H](C)C(=O)O[C@@H](C)[C@H](Oc2ccc(C)cc2Cl)C(C)(C)C)c1O [Cmpd 1006] | B (≤ 80) | B (≤ 80) | A (> 80) | A (> 80)
COc1ccnc(C(=O)N[C@@H](C)C(=O)O[C@@H](C)[C@H](Oc2cccc(Cl)c2)C(C)(C)C)c1O [Cmpd 1007] | A (> 80) | B (≤ 80) | A (> 80) | A (> 80)
CCC[C@@H](Oc1ccc(Cl)c(OC)c1)[C@H](C)OC(=O)[C@H](C)NC(=O)c1nccc(OC)c1O [Cmpd 1008] | B (≤ 80) | B (≤ 80) | B (≤ 80) | B (≤ 80)
COc1ccnc(C(=O)N[C@@H](C)C(=O)O[C@@H](C)[C@H](Oc2cccc(Cl)c2)C2CC2)c1O [Cmpd 1009] | A (> 80) | A (> 80) | A (> 80) | A (> 80)
COc1ccnc(C(=O)N[C@@H](C)C(=O)O[C@@H](C)[C@H](Oc2ccc(C)cc2)C2CC2)c1O [Cmpd 1010] | B (≤ 80) | B (≤ 80) | A (> 80) | A (> 80)
CCC[C@@H](Oc1ccc(C)cc1)[C@H](C)OC(=O)[C@H](C)NC(=O)c1nccc(OC)c1O [Cmpd 1012] | B (≤ 80) | B (≤ 80) | A (> 80) | A (> 80)
CCC[C@@H](Oc1cccc(OC)c1)[C@H](C)OC(=O)[C@H](C)NC(=O)c1nccc(OC)c1O [Cmpd 1013] | B (≤ 80) | B (≤ 80) | A (> 80) | A (> 80)
